# Laboratory results taken from PMC6984732, “Thymidine phosphorylase and prostrate cancer cell proliferation inhibitory activities of synthetic 4-hydroxybenzohydrazides: In vitro, kinetic, and in silico studies” (PLoS ONE, 2020).
# Key:
# [1] = molecular target: T1, thymidine phosphorylase (TP) (Escherichia coli, UniProt P07650); experiment: Kinetic studies on thymidine phosphorylase (Lineweaver-Burk, secondary re-plot, Dixon plot); format: biochemical, E. coli; conditions: thymidine as variable substrate; for Inhibition Type: from Lineweaver-Burk plot
# T1 construct: purchased Sigma Aldrich, USA; host or cells: E. coli
# T1 sequence (P07650 whole entry): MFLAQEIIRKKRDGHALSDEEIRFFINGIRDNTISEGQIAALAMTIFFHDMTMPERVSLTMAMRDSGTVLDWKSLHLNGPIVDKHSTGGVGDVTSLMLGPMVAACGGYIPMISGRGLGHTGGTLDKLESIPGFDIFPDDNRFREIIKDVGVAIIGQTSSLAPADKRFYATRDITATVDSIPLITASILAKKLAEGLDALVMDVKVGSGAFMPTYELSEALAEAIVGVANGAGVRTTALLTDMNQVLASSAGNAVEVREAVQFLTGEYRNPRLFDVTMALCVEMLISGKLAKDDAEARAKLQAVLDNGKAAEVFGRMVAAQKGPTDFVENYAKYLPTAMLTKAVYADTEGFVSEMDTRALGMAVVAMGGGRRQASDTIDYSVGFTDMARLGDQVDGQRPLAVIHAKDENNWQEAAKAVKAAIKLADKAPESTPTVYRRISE
# Protocol: Kinetic studies were carried out to identify the mechanism of inhibition by these compounds. Inhibitor could bind with the enzyme in multiple ways, such as in competitive, non-competitive, mixed or uncompetitive way. In kinetic assay, the enzyme (0.058 U/200 μL) was incubated with different concentrations of inhibitor for 10 min at 30°C. The reaction was then initiated by adding different concentrations (0.1875–1.5 mM) of substrate (thymidine), and the resulting degradation of thymidine was measured continuously at 290 nm for 10 min on ELISA plate reader. Every experiment was run in triplicate.
# Lineweaver-Burk plot was plotted to determine the type of inhibition. This was accomplished by plotting the reciprocal of the rate of reaction against the reciprocal of the substrate concentration. Ki values were determined by secondary re-plot of Lineweaver-Burk plot, and reconfirmed by Dixon plot.
# [2] = tested on: mouse fibroblast (3T3) cells; experiment: MTT anti-proliferative (cytotoxicity) assay, 3T3 cells; format: cell-based; conditions: NIH3T3, 48 h incubation, mouse fibroblast normal cell line, read-out: IC50 ± Standard Deviation, 3T3 Cell Line
# Protocol: (§1) Anti-proliferative activity of active compounds was evaluated by using the standard MTT (3-[4,5-dimethylthiazole-2-yl]-2,5-diphenyl-tetrazolium bromide) colorimetric assay in 96-well plate.
# (§2) It is a colorimetric assay that measures the reduction of MTT by mitochondrial enzyme i.e. succinate dehydrogenase. The MTT enters into the mitochondria of cell, where it is reduced to an insoluble formazan salt. As reduction of MTT can only occur in metabolically active cells, the level of activity is actually a measure of the viability of the cells.
# (§3) Mouse fibroblast normal cell line 3T3, and prostate cancer line (PC3) were cultured separately in DMEM, supplemented with 5% of FBS, 100 IU/mL of penicillin and 100 μg/mL of streptomycin, and kept at 37°C in 5% CO2 incubator. For the preparation of cell culture, 100 μL/well of cell solution (5 x 10^4 cells/mL) was added into 96-well plate. The plate was incubated for overnight, and fresh medium was added after the removal of old medium. The test compounds were also added in different concentrations into the plate, and again incubated for 48 h. After the completion of this incubation period, 200 μL MTT (0.5 mg/mL) was added, and plate was again incubated for 4 h, after this final incubation, 100 μL of DMSO was added to each well. The level of MTT reduction to formazan was evaluated by change in absorbance at 540 nm for 3T3, and 570 nm for PC3 using a micro-plate reader (Spectra Max plus, Molecular Devices, CA, USA).
# [3] = molecular target: T1, thymidine phosphorylase (TP); experiment: Thymidine phosphorylase inhibition assay (spectrophotometric, 290 nm); format: biochemical, E. coli; conditions: for inhibition: read-out: Percent Inhibition of thymidine phosphorylase, 10 μL of test compound (0.5 mM in dimethylsulfoxide) per well, <50% regarded inactive; for IC50: recombinant TP expressed in E. coli, substrate thymidine, pH 7.0, 30°C, N.A. = not active, read-out: IC50 (μM ± SEM), thymidine phosphorylase inhibition
# Protocol: Since human TP is not commercially available, we used commercially available recombinant TP (expressed in E. coli) enzyme. Primary sequence of TP is mostly conserved throughout the evolution and mammalian TP share 39% sequence similarity with TP of E. coli. The mammalian enzyme also shares 65–70% similarity with the active site residues of E. coli TP enzyme.
# Assay for TP inhibition was performed spectrophotometrically, following the method of Bera et al. with some modifications. Enzyme TP catalyzed the reversible phosphorolysis of thymidine to thymine and 2-deoxyribose-1-phosphate. Reaction mixture contained 150 μL of potassium phosphate buffer (pH 7.0, 50 mM), 20 μL of enzyme (0.058 U/well), and 10 μL of test compound (0.5 mM in dimethylsulfoxide). The reaction mixture was incubated for 10 min at 30°C. 20 μL of substrate (1.5 mM) was then added and change in absorbance was recorded after every minute for a total time period of 10 minutes at 290 nm in ELISA plate reader (Spectra Max-340, Molecular Devices, CA, USA).
# We have used the 96-well UV-plates, purchased from Corning (Catalogue No. COSTAR 3635, Lot No. 00912050). […] We then added the substrate (thymidine), and recorded the final readings.
# [4] = tested on: prostate cancer (PC3) cells; experiment: MTT anti-proliferative assay, PC3 cells; format: cell-based; conditions: Homo sapiens, PC-3, 48 h incubation, prostate cancer cell line, read-out: IC50 ± Standard Deviation, PC3 Cell Line
# Protocol: as §1, §2, §3
SMILES,Inhibition Type [1],"Ki ([1]; secondary re-plot of Lineweaver-Burk plot, reconfirmed by Dixon plot, read-out: Ki (μM ± SEM)) [µM]",IC50 [2] [µM],inhibition [3] [%],IC50 [3] [µM],IC50 [4] [µM]
"O=C(NN=Cc1cc(Br)cc(Br)c1O)c1ccc(O)cc1 [Compound 22, N'-[(E)-(3^′,5^′-Dibromo-2^′-hydroxylphenyl)methylidene]-4-hydroxylbenzohydrazide]",Non-competitive,1.75 ± 0.009,9.2 ± 0.1,99.9,6.8 ± 0.7,8.3 ± 0.9
"C/C(=N\NC(=O)c1ccc(O)cc1)c1c(O)cccc1O [Compound 27, N'-[(E)-1-(2^′,6^′-Dihydroxylphenyl)ethylidene]-4-hydroxylbenzohydrazide]",Uncompetitive,–,26.7 ± 1,93,–,> 30
"CC/C(=N\NC(=O)c1ccc(O)cc1)c1cc(O)ccc1O [Compound 29, N'-[(E)-1-(2^′,5^′-Dihydroxylphenyl)propylidene]-4-hydroxylbenzohydrazide]",Uncompetitive,–,19.5 ± 0.9,99,173 ± 1.4,> 30
